Molecular target: protein A (a kinase)
Test: Inhibition of protein A kinase activity (33P-ATP peptide phosphorylation, filter, scintillation counting)
Format: biochemical
Conditions: for IC50: Table 2, 10 μM [gamma-33P]-ATP, 10 μM peptide substrate, 40 minutes at room temperature; for pIC50 (experimental): Table 3, given with negative sign
Experimental: The hit compound derivatives synthesized as real compounds through Example 3 were evaluated for ability to inhibit the activity of protein A (a kinase).
Specifically, […] of protein A was incubated along with 8 mM MOPS (pH 7.0), 0.2 mM EDTA, 10 mM magnesium acetate, 10 μM [gamma-33P]-ATP, and 10 μM […], which is a phosphorylation target peptide. After incubation at room temperature for 40 minutes, the reaction was terminated by adding phosphoric acid to a final concentration of 0.5%. The reaction mixture was spotted onto a filter, then washed four times with 0.425% phosphoric acid for 4 minutes each. After washing once with methanol, the sample was dried and measured for radioactivity (scintillation counting) to assess phosphorylation (i.e., […](p)EDEEE peptide detection).

| SMILES | IC50 [nM] | pIC50 (experimental) |
| --- | --- | --- |
| O=C(Nc1cc(-c2cccc(NS(=O)(=O)N3CCOCC3)c2)n[nH]1)c1cc2nccnc2s1 [Compound D0025] | 62 | 7.21 |
| C#CC(=O)Nc1cccc(-c2cc(NC(=O)c3ccc4nonc4c3)[nH]n2)c1 [Compound D0054] | 26 | 7.58 |
| CC(C)(C)C(=O)Nc1cccc(-c2cc(NC(=O)c3nc4cccnc4s3)[nH]n2)c1 [Compound D0065] | 119 | 6.92 |
| O=C(Nc1cc(-c2cccc(NS(=O)(=O)N3CCOCC3)c2)n[nH]1)c1cccc2ncsc12 [Compound D0083] | 129 | 6.89 |
| C#CC(=O)Nc1cccc(-c2cc(NC(=O)c3cc4ccc(O)cc4o3)[nH]n2)c1 [Compound D0135] | 63 | 7.2 |
| C#CC(=O)Nc1cccc(-c2cc(NC(=O)c3cc4ccc(O)cc4o3)[nH]n2)c1 [Compound D0139] | 22 | 7.66 |
| C#CC(=O)Nc1cccc(-c2cc(NC(=O)c3cc4ncc(C(=O)O)nc4s3)[nH]n2)c1 [DM009] | 7 | 8.15 |
| C#CC(=O)Nc1cccc(-c2cc(NC(=O)c3cc4ncc(C(N)=O)nc4s3)[nH]n2)c1 [DM010] | 10 | 8 |

Now from value to compound:

| IC50 [nM] | pIC50 (experimental) | SMILES |
| --- | --- | --- |
| 30 | 7.52 | CC#CC(=O)Nc1cccc(-c2cc(NC(=O)c3cc4cc(OC)ccc4o3)[nH]n2)c1 [Compound D0069] |
| 13 | 7.89 | C#CC(=O)Nc1cccc(-c2cc(NC(=O)c3cc4nccnc4s3)[nH]n2)c1 [Compound D0101] |
| 40 | 7.4 | C#CC(=O)Nc1cccc(-c2cc(NC(=O)c3cc4ncc(O)nc4s3)[nH]n2)c1 [Compound D0137] |
| 4 | 8.4 | C#CC(=O)Nc1cccc(-c2cc(NC(=O)c3cc4c(s3)CCOC4)[nH]n2)c1 [Compound D0157] |
| 19 | 7.72 | CC#CC(=O)Nc1cccc(-c2cc(NC(=O)c3cc4c(s3)CCOC4)[nH]n2)c1 [Compound D1008] |
| 31 | 7.51 | CC#CC(=O)Nc1cccc(-c2cc(NC(=O)c3cc4c(s3)CCNC4)[nH]n2)c1 [Compound D1010] |
| 8 | 8.1 | CC#CC(=O)Nc1cccc(-c2cc(NC(=O)c3cc4c(s3)CC(=O)NC4)[nH]n2)c1 [Compound D1011] |

— patent US20250299772A1, “METHOD FOR GENERATION OF CHEMICAL DERIVATIVES AGAINST TARGET PROTEIN TO BUILD AI DRUG PLATFORM” (SYNTEKABIO, INC., priority 2024, published 2025)
